Four molecules from patent publication US20110046191A1, “COMBINATION OF A MUSCARINIC RECEPTOR ANTAGONIST AND A BETA-2-ADRENOCEPTOR AGONIST” (ARGENTA DISCOVERY LTD., priority 2007, published 2011) can be followed below.

Values joined by “and” are separate entries in the source; they are usually repeats but may differ in a detail not shown here. Equal values may be shown once. Where a name gives a salt, the structure may show the parent alone.

The test system of data set [1] is Methacholine-induced bronchoconstriction in the guinea pig. The experiment in a line: Lung function in anaesthetised guinea pigs: methacholine-induced bronchoconstriction. The class given is in vivo. The note with it: 2 hours prior to methacholine, after 5 μg/kg methacholine i.v. How it is done:
Evaluation of Lung Function in Anaesthetised Guinea Pigs.
Male Dunkin-Hartley guinea pigs (300-600 g) were weighed and dosed with vehicle (0.05M phosphate, 0.1% Tween 80, 0.6% saline, pH 6) or compound via the intratracheal route under recoverable gaseous anaesthesia (5% halothane in oxygen). Animals were dosed with compound or vehicle two hours prior to the administration of methacholine. Guinea pigs were anaesthetised with pentobarbitone (1 mL/kg of 60 mg/mL solution i.p.) approximately 30 minutes prior to the first bronchoconstrictor administration. The trachea was cannulated and the animal ventilated using a constant volume respiratory pump (Harvard Rodent Ventilator model 683) at a rate of 60 breath/min and a tidal volume of 5 mL/kg. A jugular vein was cannulated for the administration of methacholine or maintenance anaesthetic (0.1 mL of pentobarbitone solution, 60 mg/mL, as required).
The animals were transferred to a Flexivent System (SCIREQ, Montreal, Canada) in order to measure airway resistance. The animals were ventilated (quasi-sinusoidal ventilation pattern) at 60 breaths/min at a tidal volume of 5 mL/kg. A positive end expiratory pressure of 2-3 cm H2O was applied. Respiratory resistance was measured using the Flexivent “snapshot” facility (1 second duration, 1 Hz frequency). Once a stable baseline resistance value had been obtained the animals were given methacholine in ascending doses (0.5, 1, 2, 3 and 5 μg/kg, i.v) at approximately 4-minute intervals via the jugular catheter. After each administration of bronchoconstrictor the peak resistance value was recorded. Guinea pigs were euthanised with approximately 1.0 mL pentobarbitone sodium (Euthatal) intravenously after the completion of the lung function measurements.
Percentage bronchoprotection produced by a compound was calculated at each dose of brochoconstrictor as follows:
Where % change Rveh is the mean of the maximum percentage change in airway resistance in the vehicle treated group. The results reported were measured after 5 μg/kg methacholine and were expressed as percentage bronchoprotection (mean±s.e.mean).
Guinea pigs were dosed with vehicle, 3 and 27 μg/kg compound (BA1), 0.2 μg/kg compound (MA2) (Crystalline Form A) or a combination of 3 μg/kg Compound (BA1) and 0.2 μg/kg Compound (MA2) via the intratracheal route. Administration of increasing intravenous doses of methacholine (0.5, 1, 2, 3 and 5 μg/kg) evoked dose-related bronchoconstriction in the vehicle treated animals ranging from 13±2.6% at 0.5 μg/kg to 2530±280% at 5 μg/kg two hours after vehicle administration (n=9).
[…] Administration of increasing intravenous doses of methacholine (0.5, 1, 2, 3 and 5 μg/kg) evoked dose-related bronchoconstriction in the vehicle treated animals ranging from 14±2.6% at 0.5 μg/kg to 2240±269% at 5 μg/kg two hours after vehicle administration (n=10).

Data set [2] addresses T1, Adrenergic β2 (Homo sapiens, UniProt P07550).
T1 construct: Adherent H292 cells were removed from tissue culture flasks; endogenous in cells; host or cells: H292 cells
In words: Adrenergic β2 mediated cAMP production in H292 cells (AlphaScreen). Format: cell-based. The note with it: Intrinsic Activity as a fraction relative to the maximum activity of formoterol. How it is done: Adrenergic β2 Mediated cAMP Production
H292 cells were grown in 225 cm2 flasks incubator at 37° C., 5% CO2 in RPMI medium containing, 10% (v/v) FBS (foetal bovine serum) and 2 mM L-glutamine.
Adherent H292 cells were removed from tissue culture flasks by treatment with Accutase™ cell detachment solution for 15 minutes. Flasks were incubated for 15 minutes in a humidified incubator at 37° C., 5% CO2. Detached cells were re-suspended in RPMI media (containing 10% (v/v) FBS and 2 mM L-glutamine) at 0.05×10^6 cells per mL. 5000 cells in 100 μL were added to each well of a tissue-culture-treated 96-well plate and the cells incubated overnight in a humidified incubator at 37° C., 5% CO2. The culture media was removed and cells were washed twice with 100 μL assay buffer and replaced with 50 μL assay buffer (HBSS solution containing 10 mM HEPES pH7.4 and 5 mM glucose). Cells were rested at room temperature for 20 minutes after which time 25 μL of rolipram (1.2 mM made up in assay buffer containing 2.4% (v/v) dimethylsulphoxide) was added. Cells were incubated with rolipram for 10 minutes after which time Compound A was added and the cells were incubated for 60 minutes at room temperature. The final rolipram concentration in the assay was 300 μM and final vehicle concentration was 1.6% (v/v) dimethylsulphoxide. The reaction was stopped by removing supernatants, washing once with 100 μL assay buffer and replacing with 50 μL lysis buffer. The cell monolayer was frozen at −80° C. for 30 minutes (or overnight).
The concentration of cAMP (cyclic adenosine monophosphate) in the cell lysate was determined using AlphaScreen™ methodology. […] The AlphaScreen™ signal was measured using an EnVision spectrophotometer (Perkin-Elmer Inc.) with the recommended manufacturer's settings. cAMP concentrations were determined by reference to a calibration curve determined in the same experiment using standard cAMP concentrations. […] Intrinsic Activity was expressed as a fraction relative to the maximum activity determined for formoterol in each experiment.

The target of data set [3] is T2, recombinant human adrenergic beta 1 receptors (Homo sapiens, UniProt P08588).
T2 construct: purchased Euroscreen
In words: Adrenergic β1 selectivity binding assay ([125I]-Iodocyanopindolol). The note with it: inhibition of [125I]-Iodocyanopindolol binding; read-out: β1 bind p IC50. How it is done: Membranes containing recombinant human adrenergic beta 1 receptors were obtained from Euroscreen. These were diluted in Assay Buffer (50 mM HEPES, 1 mM EDTA, 120 mM NaCl, 0.1% gelatin, pH 7.4) to provide a final concentration of membranes that gave a clear window between maximum and minimum specific binding.
Assays were performed in U-bottomed 96-well polypropylene plates. […] For each assay plate 8 replicates were obtained for [^125I]-Iodocyanopindolol binding in the presence of 10 μL vehicle (10% (v/v) DMSO in Assay Buffer; defining maximum binding) or 10 μL Propranolol (10 μM final concentration; defining non-specific binding (NSB)). Membranes were then added to achieve a final volume of 100 μL. […] Five washes with 250 μL wash buffer (50 mM HEPES, 1 mM EDTA, 120 mM NaCl, pH 7.4) were performed at 4° C. to remove unbound radioactivity. The plates were dried then sealed from underneath using Packard plate sealers and MicroScint-O (50 μL) was added to each well. The plates were sealed (TopSeal A) and filter-bound radioactivity was measured with a scintillation counter (TopCount, Packard BioScience) using a 3-minute counting protocol.
Total specific binding (B0) was determined by subtracting the mean NSB from the mean maximum binding. NSB values were also subtracted from values from all other wells.

For data set [4], the target named is T3, recombinant human α1D receptor (Homo sapiens, UniProt P25100).
T3 construct: expressed in transfected cells; host or cells: HEK293
T3 sequence (P25100 1-572): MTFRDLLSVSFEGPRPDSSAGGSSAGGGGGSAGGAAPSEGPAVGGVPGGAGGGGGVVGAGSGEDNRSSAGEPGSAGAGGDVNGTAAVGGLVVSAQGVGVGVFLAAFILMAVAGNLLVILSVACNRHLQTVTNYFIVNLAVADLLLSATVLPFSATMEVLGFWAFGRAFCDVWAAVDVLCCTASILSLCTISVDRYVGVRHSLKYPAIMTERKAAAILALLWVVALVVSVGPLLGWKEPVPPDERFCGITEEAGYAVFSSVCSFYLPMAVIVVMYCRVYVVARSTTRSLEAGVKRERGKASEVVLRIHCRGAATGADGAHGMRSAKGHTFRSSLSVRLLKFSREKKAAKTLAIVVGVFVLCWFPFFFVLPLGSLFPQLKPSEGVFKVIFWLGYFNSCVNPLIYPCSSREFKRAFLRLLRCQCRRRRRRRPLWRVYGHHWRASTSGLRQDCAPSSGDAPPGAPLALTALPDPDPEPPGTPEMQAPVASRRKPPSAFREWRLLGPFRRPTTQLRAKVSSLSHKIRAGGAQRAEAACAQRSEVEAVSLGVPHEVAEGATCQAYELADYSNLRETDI
The experiment in a line: Adrenergic α1D selectivity binding assay ([3H]-prazosin). The note with it: inhibition of [3H]-prazosin binding; read-out: α1 bind pIC50 (converted). How it is done:
Membranes were prepared from human embryonic kidney 293 (HEK293) cells expressing recombinant human α1D receptor. These were diluted in Assay Buffer (50 mM HEPES, 1 mM EDTA, 0.1% gelatin, pH 7.4) to provide a final concentration of membranes that gave a clear window between maximum and minimum specific binding.
Assays were performed in U-bottomed 96-well polypropylene plates. 10 μL [^3H]-prazosin (0.3 nM final concentration) and 10 μL of Compound A (10× final concentration) were added to each test well. For each assay plate 8 replicates were obtained for [^3H]-prazosin binding in the presence of 10 μL vehicle (10% (v/v) DMSO in Assay Buffer; defining maximum binding) or 10 μL BMY7378 (10 μM final concentration; defining non-specific binding (NSB)). Membranes were then added to achieve a final volume of 100 μL. […] Five washes with 250 μL wash buffer (50 mM HEPES, 1 mM EDTA, pH 7.4) were performed at 4° C. to remove unbound radioactivity. […] The plates were sealed (TopSeal A) and filter-bound radioactivity was measured with a scintillation counter (TopCount, Packard BioScierice) using a 3-minute counting protocol.
Total specific binding (B0) was determined by subtracting the mean NSB from the mean maximum binding. […]

Data set [5] is described as follows: Deaggregation properties of micronised Salt Form A (Fine Particle Fraction). The class given is physicochemical. The note with it: micronised material, across 0-75% RH. The text has this:
‘Salt Form A’ was Micronised in a 50 mm jet mill, with ejector pressure 5 bar and milling pressure 1.5-2 bar, giving (90% yield). Particle size of the micronised material as determined by Malvern Laser Diffraction with dry powder feeder was d(0.1) 0.77 μm: d(0.5), 1.45μ: d(0.9): 2.65 μm.

The nature of data set [6]: Gravimetric vapour sorption (GVS). Format: physicochemical. The note with it: at 80% RH, ambient temperature. How it is done: GVS profiles were measured using a Dynamic Vapour Sorption DVS-1 instrument. The solid sample ca. 1-5 mg was placed into a glass vessel and the weight of the sample was recorded during a dual cycle step method (40 to 90 to 0 to 90 to 0% relative humidity (RH), in steps of 10% RH). GVS profiles were recorded at ambient temperature.

Where [7] appears, read: BA1 27 μg/kg intratracheal, dihydrobromide.

T1 sequence (P07550 whole entry): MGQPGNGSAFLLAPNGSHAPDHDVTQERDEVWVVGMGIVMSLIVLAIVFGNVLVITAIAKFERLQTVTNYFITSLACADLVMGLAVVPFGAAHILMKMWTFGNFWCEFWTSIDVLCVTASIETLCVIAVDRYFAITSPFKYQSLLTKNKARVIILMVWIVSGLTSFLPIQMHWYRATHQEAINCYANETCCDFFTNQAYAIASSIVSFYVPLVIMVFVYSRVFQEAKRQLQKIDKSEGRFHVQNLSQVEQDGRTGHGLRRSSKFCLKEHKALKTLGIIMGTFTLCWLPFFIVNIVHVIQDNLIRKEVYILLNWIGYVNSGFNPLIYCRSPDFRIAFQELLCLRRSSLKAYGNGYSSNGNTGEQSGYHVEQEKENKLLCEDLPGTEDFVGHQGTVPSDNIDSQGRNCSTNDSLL
T2 sequence (P08588 whole entry): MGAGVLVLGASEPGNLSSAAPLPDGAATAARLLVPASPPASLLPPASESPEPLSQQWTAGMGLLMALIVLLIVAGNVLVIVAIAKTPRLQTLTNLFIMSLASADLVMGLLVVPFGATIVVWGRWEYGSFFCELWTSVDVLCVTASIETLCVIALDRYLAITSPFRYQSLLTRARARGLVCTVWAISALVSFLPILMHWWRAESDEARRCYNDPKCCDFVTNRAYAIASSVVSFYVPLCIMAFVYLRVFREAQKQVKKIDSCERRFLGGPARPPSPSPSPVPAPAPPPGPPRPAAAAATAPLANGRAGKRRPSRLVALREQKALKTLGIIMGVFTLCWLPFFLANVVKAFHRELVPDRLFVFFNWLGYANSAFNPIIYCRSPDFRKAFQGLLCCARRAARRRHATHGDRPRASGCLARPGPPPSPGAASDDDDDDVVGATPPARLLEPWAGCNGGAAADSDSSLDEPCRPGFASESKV

As for `CCN(CC)CCN(CCNCCc1ccc(O)c2[nH]c(=O)sc12)C(=O)CCOCCc1cccc2ccccc12` [BA1, N-[2-(Diethylamino)ethyl]-N-(2-{[2-(4-hydroxy-2-oxo-2,3-dihydro-1,3-benzothiazol-7-yl)ethyl]amino}ethyl)-3-[2-(1-naphthyl)ethoxy]propanamide dihydrobromide], the increase in resistance in data set [1] (BA1 1 μg/kg intratracheal) is 1380±333%; in data set [1] (BA1 3 μg/kg intratracheal), 2090±239%; in data set [1] (setting [7]) it was 470±221% and 242±69%. The “inhibition of methacholine-induced bronchoconstriction” value in data set [1] (BA1 1 μg/kg intratracheal) was 38%; in data set [1] (BA1 3 μg/kg intratracheal), 17%; in data set [1] (setting [7]), 81% and 89%. Further, the “β2 Int Act” value in data set [2] is given as 0.8. In addition, the IC50 in data set [3] was more than 10 µM.
Consider `CCN(CC)CCN(CCNCCc1ccc(O)c2[nH]c(=O)sc12)C(=O)CCOCCc1cccc(Cl)c1` [BA2, N-[2-(Diethylamino)ethyl]-N-(2-{[2-(4-hydroxy-2-oxo-2,3-dihydro-1,3-benzothiazol-7-yl)ethyl]amino}ethyl)-3-[2-(3-chlorophenyl)ethoxy]propanamide dihydrobromide], for which the “β2 Int Act” value in data set [2] was 0.7. The IC50 in data set [4] was more than 0.794 µM; in data set [3], more than 10 µM.
As for `O=c1[nH]c2c(O)ccc([C@@H](O)CNCCSCCCNCCc3ccccc3Cl)c2s1` [BA3, 7-[(1R)-2-({2-[(3-{[2-(2-Chlorophenyl)ethyl]amino}propyl)thio]ethyl}amino)-1-hydroxyethyl]-4-hydroxy-1,3-benzothiazol-2(3H)-one dihydrobromide], the “β2 Int Act” value in data set [2] came to 0.8.
Turning to `C[N+](C)(CCOCc1ccc(Cl)cc1)Cc1cnc([C@](O)(c2ccccc2)C2CCCCC2)o1` [MA11 Salt Form A, [2-(4-chloro-benzyloxy)-ethyl]-[2-((R)-cyclohexyl-hydroxy-phenyl-methyl)-oxazol-5-ylmethyl]-dimethyl-ammonium hemi-naphthalene-1,5-disulfonate], the “Fine Particle Fraction (FPF)” value in data set [5] is more than 60%. Further, the GVS weight increase entry in data set [6] is listed as “less than 0.5 % w/w”.
